Measurements published in US9617263B2, “Phenyl-triazolo-pyridine compounds” (Eli Lilly and Company, priority 2014, dated 2017).

Experiments:
PPARα = molecular target: T1, PPARα (Homo sapiens, UniProt Q07869); experiment: Gal4 PPARα reporter (CTF) functional assay in CV1 cells; assay type: cell-based; conditions: versus 10 μM PPAR agonist reference compound
T1 construct: expressed in transfected cells; host or cells: CV1 (African green monkey kidney)
T1 sequence (Q07869 239-466 limits assumed): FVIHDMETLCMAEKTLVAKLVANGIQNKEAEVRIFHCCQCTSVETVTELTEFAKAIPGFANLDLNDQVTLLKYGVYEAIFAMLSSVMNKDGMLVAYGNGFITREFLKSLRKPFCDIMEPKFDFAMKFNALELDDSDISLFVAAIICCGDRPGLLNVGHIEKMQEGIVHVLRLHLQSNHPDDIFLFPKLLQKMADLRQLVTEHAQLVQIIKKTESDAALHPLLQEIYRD
Description: Because GPR40 is known to be activated by ligands to PPARγ, exemplified compounds are examined in Gal4 PPARα, Gal4 PPARδ, and PPARγ reporter assays to determine the selectivity of exemplified compounds for PPAR receptors. CV1 cells, which are derived from the renal tissue of an African green monkey, are transfected with various receptor and reporter plasmids using Fugene. […] After 24 hours incubation with compounds, cells are lysed and luciferase activity is determined as a measure of receptor activation by luminescence. […] The maximum percent stimulation is determined versus maximum stimulation obtained with 10 μM of an appropriate PPAR agonist reference compound, 2-methyl-2-(4-{2-methyl-3-[2-(phenylcarbonyl)-4-(trifluoromethoxy)phenoxy]propoxy}phenoxy)propanoic acid. […] Efficacy was negative for PPARα, PPARδ, and PPARγ is detected with the compound of Example 1 when examined up to […] in the specific PPAR co-transfection (CTF) functional assays described above. […]

hGPR40 [1] = molecular target: T2, hGPR40 (Homo sapiens, UniProt O14842); experiment: Calcium Flux Primary Assay (FLIPR, Calcium 4 Dye); assay type: cell-based; design: expressed in transfected cells; host or cells: HEK293; conditions: HEK293 cells over expressing human GPR40; Mean±SEM
Description: HEK293 cells over expressing the human GPR40 cDNA maintained in Dulbecco's modified Eagle's medium with F12 medium in 3:1 ratio supplemented with 10% FBS and 800 μg/ml geneticin at 37° C. and 5% CO2 are employed for the study. Agonist assays are performed using a Calcium 4 Dye assay kit (Molecular Devices) in the presence or absence of 0.1% fatty acid free BSA in the assay buffer (1×HBSS (Hank's Balanced Salt Solution) & 20 mM HEPES (4-(2-hydroxyethyl)-1-piperazineethanesulfonic acid). Receptor activation is measured as an increase in intracellular calcium using the Fluorometric Imaging Plate Reader (FLIPR). Maximum change in fluorescence over the base line is used to determine the agonist response. The EC50 value of the compound is calculated using Excel Fit software (version 4; IDBS) by plotting concentration vs relative fluorescence units (RFUs).
Target sequence in this assay (O14842 whole entry): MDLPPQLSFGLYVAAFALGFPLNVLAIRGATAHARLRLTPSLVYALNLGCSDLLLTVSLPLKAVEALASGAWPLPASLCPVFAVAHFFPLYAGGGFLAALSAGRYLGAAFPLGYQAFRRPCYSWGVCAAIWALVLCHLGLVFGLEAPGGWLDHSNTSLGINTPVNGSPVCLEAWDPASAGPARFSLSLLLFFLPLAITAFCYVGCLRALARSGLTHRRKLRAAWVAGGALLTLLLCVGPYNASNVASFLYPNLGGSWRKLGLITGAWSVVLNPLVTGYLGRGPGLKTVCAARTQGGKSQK

Male Balb/c mice = experiment: Intraperitoneal glucose tolerance test (IPGTT); assay type: in vivo, mouse
Description: To examine the ability of Examples 1 to 20 to activate GPR40 in-vivo resulting in desired glucose lowering efficacy, i.e. reduction in plasma glucose levels, an intraperitoneal glucose tolerance test (ipGTT) study is completed, and the data is shown for the compound tested below.
Male Balb/c (Albino mice) mice (8-9 weeks of age) are single housed, and fed with normal rodent chow diet and water ad libitum. Animals are weighed; randomized by body weight; and their daily body weights are recorded. Animals are dosed daily using a formulation carrying methylcellulose and tween-80. On the night before the study, animals are fasted. In the morning, animals are dosed orally with compound or vehicle alone 60 minutes prior to the glucose tolerance test (glucose 2 g/kg, i.p.). Blood glucose levels are determined from tail bleeds taken at 0, 3, 7, 15, 30, and 60 min after glucose challenge. […] Percent lowering in glucose is calculated from the AUC data of the compound with respect to the AUC of vehicle group. The test compound is orally administered at 0.3, 1.0, 3.0, 10, 30, or 100 mg/kg, and a positive control (3-[4-(2-methyl-benzyloxy)-phenyl]-hex-4-ynoic acid, see WO2005086661 (TAK875).) is administered at 10 mg/kg. […] Glucose levels are lowered at the 30, and 60 minute time points for the positive control.

hGPR40 [2] = molecular target: T2, hGPR40; experiment: Human beta-arrestin agonist assay with 1% FBS (PathHunter, hEK293-hFFAR1); assay type: cell-based; design: host or cells: HEK293 (hEK293-hFFAR1 PathHunter cells)
Source text: Human embryonic kidney (hEK293)-hFFAR1 cells are purchased from DiscoveRx. Human osteosarcoma (U2OS) cells expressing mFFAR1 are developed by DiscoveRX. These cells co-express the Prolink (PK)-tagged GPR40 and the Enzyme Acceptor (EA)-tagged beta-arrestin fusion proteins. If activation of the GPR40 stimulates beta-arrestin recruitment, it would force complementation of the beta galactosidase (B-gal) enzyme fragments, forming a B-gal enzyme that generates a chemiluminescent signal using the DiscoveRx PathHunter detection kit. Cells are incubated overnight at 5,000 cells/well in 384 well plates in culture media containing 1% FBS (fetal bovine serum). Serial diluted compounds in DMSO (2× dilutions to generate 20 concentrations) are step down diluted in culture media containing 1% FBS (fetal bovine serum) and added to cells with a final top concentration starting of 100 μM. After addition of compounds, cells are incubated for 90 min at 37° C. in 5% CO2 incubator, and DiscoveRX kit detection reagents are added. Measurement of the chemiluminescent signal is ascertained with the Envision reader, after a 1-hour incubation at room temperature. Data are fit to a 4 parameter-fit logistics to determine EC50 values; % activity is measured versus maximum response to TAK875 at 1 μM.
Target sequence in this assay (O14842 whole entry): as above
Target sequence in this assay (P32121 whole entry partner): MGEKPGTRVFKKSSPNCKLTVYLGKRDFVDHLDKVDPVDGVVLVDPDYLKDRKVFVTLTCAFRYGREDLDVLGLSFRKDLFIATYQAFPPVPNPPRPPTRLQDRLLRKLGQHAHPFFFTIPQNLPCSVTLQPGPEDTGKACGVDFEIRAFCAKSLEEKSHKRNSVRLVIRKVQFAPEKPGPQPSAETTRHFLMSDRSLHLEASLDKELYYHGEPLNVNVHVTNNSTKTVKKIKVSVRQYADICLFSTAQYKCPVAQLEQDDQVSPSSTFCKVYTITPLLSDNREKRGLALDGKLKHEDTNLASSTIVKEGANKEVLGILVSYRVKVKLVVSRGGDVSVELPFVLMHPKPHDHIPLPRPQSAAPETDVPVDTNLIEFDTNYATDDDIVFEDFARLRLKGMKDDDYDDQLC

**Q.** For `CC#C[C@@H](CC(=O)O)c1ccc(OCc2cc(-c3ccccc3C)cn3ncnc23)cc1` [Example 1, (S)-3-[4-(6-o-Tolyl-[1,2,4]triazolo[1,5-a]pyridin-8-ylmethoxy)-phenyl]-hex-4-ynoic acid], which “Efficacy for PPARα” value (PPARα) is on record?
**A.** negative (Efficacy of <20% is considered negative)

**Q.** What about the EC50 (hGPR40 [1]) of the same compound?
**A.** 0.146 µM

**Q.** What about the “Glucose levels compared to vehicle control” value (Male Balb/c mice; 30 and 60 minute time points, Example 1 at 10, 30, 100 mg/kg oral, positive control 10 mg/kg) of the same compound?
**A.** significantly lowered

**Q.** What about the ED50 (Male Balb/c mice; Mus musculus, oral, 60 min before glucose 2 g/kg i.p., read-out: ED50 based on AUCs for glucose lowering) of the same compound?
**A.** 7.9 mg/kg

**Q.** And the EC50 (hGPR40 [2]; 1% FBS, 90 min, read-out: hGPR40 b-arrestin EC50)?
**A.** 0.0474 µM

**Q.** And the “hGPR40 b-arrestin % stimulation max (FA)” value (hGPR40 [2]; versus maximum response to TAK875 at 1 μM)?
**A.** 163%
